In patent US10842807B2, “Methods of treating neurodegenerative disorders comprising DNA methyltransferase inhibitors” (Washington University, priority 2016, dated 2020):

Key:
Format in all cases: cell-based, mouse
[1] = tested on: Htt-72Q-expressing primary cortical neurons; assay: MTS cell viability assay in Htt-expressing primary cortical neurons; details: for viability of mutant Htt-expressing neurons (MTS assay), validation of screen hits: 0.02, 0.2, 2 μM vs Htt-72Q (0 μM); for viability of Htt-72Q-expressing neurons (MTS assay): MTS at DIV 14
Experimental: Mouse primary cortical and striatal neurons from embryonic day (E) 15.5 Swiss Webster mouse fetuses (Taconic) were first plated in the minimal essential medium (MEM) containing 10% FBS, 0.45% glucose, 1 mM sodium pyruvate, 2 mM glutamine, 20 U/ml penicillin and 20 μg/ml streptomycin, for 3 h and then maintained in serum-free Neurobasal medium (Life Technologies) containing NeuroCult™ SM1 neuronal supplement ([…] Technologies), 0.5 mM glutamine and 25 μM glutamate for the first 3 d in a humidified incubator (37° C. in 5% CO2). Half of the medium was replaced with Neurobasal medium with SM1 and 0.5 mM glutamine every 3 days. Primary cortical neurons plated on 96-well flat clear bottom black plates (Corning #3904) at 4×10^4 cells/well were infected with Htt exon1 expression lentivirus (Htt-25Q or Htt-72Q) or control empty vector lentivirus at 5 days in vitro (DIV 5). Primary striatal neurons plated on 96-well plates at 1×10^5 cells/well were infected with Htt exon1 expression lentivirus at DIV 4. Viral copy number was adjusted for transduction of neurons on the basis of titer measured using the Lenti-X qRT-PCR titration kit (Clontech), and equal numbers of viral particles of Htt-25Q and Htt-72Q expressing lentiviruses were used for transduction. For the experiments to test effects of DNMT inhibitors, neurons were treated with inhibitors six hours after Htt lentiviral infection. One half of the media was changed every 3 days with media containing new drug. In knockdown experiments in Htt-expressing neurons, primary cortical neurons were cotransduced with Htt-expressing lentivirus and Dnmt shRNA or control shRNA lentivirus at DIV 5. pLKO.1-TRC1-luciferase (Luci) and pLKO.1-TRC2-LacZ were used as control for RNAi with pLKO.1-TRC1-Dnmt3a and pLKO.1-TRC2-Dnmt1, respectively. Lentiviral particles were prepared by transfecting 293LE cells with the lentiviral plasmid of interest along with packaging plasmid psPAX2 and envelope plasmid pCMV-SVG as described previously^86. Four days after transfection, viruses in the conditioned media were collected and purified using Lenti-X Concentrator (Clontech). Primary cortical neurons from BACHD mouse embryos (E15.5) were individually plated into separate wells and treated at DIV 4 with decitabine or vehicle for 3.5 days.

[2] = tested on: Htt-72Q-expressing primary cortical neurons; assay: Epigenetic drug library screen, resazurin (Alamar Blue) assay; details: 0.02, 0.2, 2 μM added at DIV 6, resazurin at DIV 14; hits validated by MTS
Experimental: As epigenetic gene regulation is a cell-type specific mechanism, we used a physiologically relevant, post-mitotic cortical neuron culture system for this screen. In this system, lentivirus-mediated expression of the exon 1-encoded N-terminal fragment of mutant Htt (Htt-72Q with a 72 glutamine repeat), but not wild-type (WT) Htt (Htt-25Q), induces neurotoxicity^38. […] In the drug screen, the viability of Htt-expressing cortical neurons was determined by the resazurin (Alamar Blue) assay, a quantitative measurement of mitochondrial metabolic activity, which correlates with cell viability.
Epigenetic drug screen was performed using a primary cortical neuron model of HD with a drug library composed of 84 compounds (Table 1), among which 80 drugs are purchased from Cayman Chemical (Epigenetic Screening Library Item No 11076) and four drugs, SGC0946, EPZ5676, EPZ6438, and GSK126, were obtained from Xcessbio Biosciences Inc. Mouse primary cortical neurons were plated on 96-well flat clear bottom black plates (Corning #3904). WT or mutant Htt exon1 fragment (Htt-25Q or Htt-72Q)-expressing lentiviruses are infected at DIV 5 as described above. The 84 compounds were added to the media at DIV 6 one day after Htt lentiviral infection with three different doses (0.02, 0.2, 2 μM) for each compound at triplicates. DMSO was used as control. Media containing compounds or DMSO were changed every three days to maintain the compounds' activity. At DIV 14, the viability of neurons was determined by resazurin (Alamar blue) assay, a quantitative measurement of mitochondrial metabolic activity. The screen was fully automated and performed in the High-Throughput Screening Center in Washington University School of Medicine. Any possible plate effects were determined using control plates treated with DMSO and used for normalization. Screen hits were validated by MTS assay.

[3] = tested on: Htt-72Q-expressing primary cortical neurons; assay: Neurofilament (NF) immunofluorescence, neurite degeneration in cortical neurons; details: fixed at DIV 14; vs. Htt-72Q (0 μM)
Experimental: (§1) Mouse primary cortical and striatal neurons from embryonic day (E) 15.5 Swiss Webster mouse fetuses (Taconic) were first plated in the minimal essential medium (MEM) containing 10% FBS, 0.45% glucose, 1 mM sodium pyruvate, 2 mM glutamine, 20 U/ml penicillin and 20 μg/ml streptomycin, for 3 h and then maintained in serum-free Neurobasal medium (Life Technologies) containing NeuroCult™ SM1 neuronal supplement ([…] Technologies), 0.5 mM glutamine and 25 μM glutamate for the first 3 d in a humidified incubator (37° C. in 5% CO2). Half of the medium was replaced with Neurobasal medium with SM1 and 0.5 mM glutamine every 3 days. Primary cortical neurons plated on 96-well flat clear bottom black plates (Corning #3904) at 4×10^4 cells/well were infected with Htt exon1 expression lentivirus (Htt-25Q or Htt-72Q) or control empty vector lentivirus at 5 days in vitro (DIV 5). Primary striatal neurons plated on 96-well plates at 1×10^5 cells/well were infected with Htt exon1 expression lentivirus at DIV 4. Viral copy number was adjusted for transduction of neurons on the basis of titer measured using the Lenti-X qRT-PCR titration kit (Clontech), and equal numbers of viral particles of Htt-25Q and Htt-72Q expressing lentiviruses were used for transduction. […]
(§2) For the measurement of neurofilament (NF) immunofluorescence intensity, cortical and striatal neurons cultured in a 96-well plate were fixed in 4% paraformaldehyde (PFA) in PBS for 20 min nine and seven days after Htt lentiviral infection, respectively, permeabilized with 0.1% Triton X-100 in PBS for 15 min at room temperature, and subjected to indirect immunofluorescence with anti-NF (2H3) primary antibody and Alexa Fluor 568-conjugated goat anti-mouse IgG secondary antibody (Life Technologies). […] Following image background subtraction, the NF immunofluorescence intensity was quantified using an ImageJ-based macro. Image capture and quantification of Htt (EM48) immunofluorescence intensity were performed as described for those of NF. […] About 300 nuclei from three random fields in a well were counted. […]

[4] = tested on: Htt-72Q-expressing primary striatal neurons; assay: Neurofilament (NF) immunofluorescence, neurite degeneration in striatal neurons; details: DIV 4 striatal neurons transduced, fixed seven days later; vs. Htt-72Q (0 μM)
Experimental: as §1, §2

In the case of `CC(=O)Nc1ccc(NC(=S)NC(=O)c2ccc(C(C)(C)C)cc2)cc1` [Tenovin-1], the “viability of mutant Htt-expressing neurons (MTS assay), validation of screen hits” value [1] is reported as “did not significantly increase the viability of mutant Htt-expressing neurons” and the “outcome in epigenetic drug screen (84 compounds)” value [2] is reported as “one of the top three positive compounds”.

In the case of `CNCc1ccc(-c2[nH]c3cc(F)cc4c3c2CCNC4=O)cc1` [AG-014699], the “viability of mutant Htt-expressing neurons (MTS assay), validation of screen hits” value [1] is reported as “no significant difference in survival” and the “outcome in epigenetic drug screen (84 compounds)” value [2] is reported as “another screen hit”.

For `Nc1ncn([C@@H]2O[C@H](CO)[C@@H](O)[C@H]2O)c(=O)n1` [5-azacytidine], the “viability of Htt-72Q-expressing neurons (MTS assay)” value ([1]; DIV 5 cortical neurons transduced with Htt lentivirus, treated with drug or DMSO (=0 μM), vs. Htt-72Q (0 μM)) was “no significant difference in survival”, the “Htt-72Q-induced neurite degeneration (NF immunofluorescence intensity), cortical neurons” value [3] was “no significant difference in NF immunofluorescence intensity” and the “mutant Htt-induced neurite degeneration (NF immunofluorescence intensity), striatal neurons” value [4] was “no significant difference in NF immunofluorescence intensity”.

B1: BDNF: recombinant BDNF protein added in the culture medium (protein, UniProt P23560 19-247, looked up)
Neurotrophic factor BDNF …: APMKEANIRGQGGLAYPGVRTHGTLESVNGPKAGSRGLTSLADTFEHVIEELLDEDQKVRPNEENNKDADLYTSRVMLSSQVPLEPPLLFLLEEYKNYLDAANMSMRVRRHSDPARRGELSVCDSISEWVTAADKKTAVDMSGGTVTVLEKVPVSKGQLKQYFYETKCNPMGYTKEGCRGIDKRHWNSQCRTTQSYVRALTMDSKKRIGWRFIRIDTSCVCTLTIKRGR
In the case of B1, the “viability of Htt-72Q-expressing neurons (MTS assay)” value ([1]; cultured with recombinant BDNF 50 ng/ml, vs. Htt-72Q with vehicle) is reported as “increased the viability of Htt-72Q-expressing neurons”.
